From patent US20230131966A1, “FUNGICIDAL AMIDES” (FMC Corporation, priority 2020, published 2023)

Assays:
Assay type in all cases: in vivo
[1] = test system: Phytophthora infestans; assay: whole plant or invertebrate; details: 250 ppm; tomato seedlings; 100 = 100% disease control, 0 = no control
[2] = test system: Puccinia recondita f. sp. tritici; assay: Test B: wheat leaf rust control on wheat seedlings; details: 250 ppm; wheat seedlings; 100 = 100% disease control, 0 = no control
[3] = test system: Phakopsora pachyrhizi; assay: Test A: Asian soybean rust control on soybean seedlings; details: 250 ppm; soybean seedlings; 100 = 100% disease control, 0 = no control
[4] = test system: Erysiphe graminis f. sp. tritici; assay: Test G: wheat powdery mildew control on wheat seedlings; details: 250 ppm, 100 = 100% disease control, 0 = no control
[5] = test system: Plasmopara viticola; assay: Test D: grape downy mildew control on grape seedlings; details: 250 ppm, 100 = 100% disease control, 0 = no control
[6] = test system: Botrytis cinerea; assay: Test E: tomato Botrytis control on tomato seedlings; details: 250 ppm, 100 = 100% disease control, 0 = no control
[7] = test system: Zymoseptoria tritici; assay: Test C: wheat leaf blotch control on wheat seedlings; details: 250 ppm; wheat seedlings; 100 = 100% disease control, 0 = no control

COc1ccnc(C(=O)N[C@@H](C)C(=O)OC(C)c2ccc(C3CCCCC3)cc2)c1OC(=O)c1ccccc1 (stereo partly drawn) [Compound 136]
Test F disease control rating [1]: 0% | Test B disease control rating [2]: 90% | Test A disease control rating [3]: 60% | Test G disease control rating [4]: 0% | Test D disease control rating [5]: 4% | Test E disease control rating [6]: 0% | Test C disease control rating [7]: 0%

COc1ccnc(C(=O)N[C@@H](C)C(=O)OC(C)c2cccc(OC3CCC(C)(C)CC3)c2)c1OC(C)=O (stereo partly drawn) [Compound 137]
Test F disease control rating [1]: 0% | Test B disease control rating [2]: 100% | Test A disease control rating [3]: 100% | Test G disease control rating [4]: 43% | Test D disease control rating [5]: 11% | Test E disease control rating [6]: 0% | Test C disease control rating [7]: 92%

COc1ccnc(C(=O)N[C@@H](C)C(=O)OC(C)c2cccc(OC3CCC(C)(C)CC3)c2)c1O (stereo partly drawn) [Compound 138]
Test F disease control rating [1]: 0% | Test B disease control rating [2]: 74% | Test A disease control rating [3]: 95% | Test G disease control rating [4]: 0% | Test D disease control rating [5]: 18% | Test E disease control rating [6]: 0% | Test C disease control rating [7]: 63%
